We go through 20 molecules from patent US20240382488A1, “NEK7 INHIBITORS” (Halia Therapeutics, Inc., priority 2021, published 2024).

A word on the pIC50: it is the negative decadic logarithm of the IC50, by convention in mol/L.

pIC50: −log10 of the molar value.

The target in the assay is T1, full-length recombinant human Nek7 (Homo sapiens, UniProt Q8TDX7).
T1 construct: full-length recombinant human Nek7; GST (N); purchased SignalChem N09-10G; host or cells: Sf9 insect cells (baculovirus)
T1 sequence (Q8TDX7 whole entry): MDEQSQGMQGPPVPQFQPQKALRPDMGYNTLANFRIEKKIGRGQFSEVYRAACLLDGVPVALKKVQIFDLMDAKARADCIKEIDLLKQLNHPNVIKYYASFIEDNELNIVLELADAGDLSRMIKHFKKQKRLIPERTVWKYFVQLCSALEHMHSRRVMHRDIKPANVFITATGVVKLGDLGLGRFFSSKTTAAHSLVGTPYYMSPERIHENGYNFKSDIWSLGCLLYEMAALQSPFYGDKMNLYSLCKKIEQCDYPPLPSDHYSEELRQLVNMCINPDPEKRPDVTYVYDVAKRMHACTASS
Put plainly: NEK7 Enzymatic Assay. Type of assay: biochemical. The note with it: radiometric [32P]-ATP kinase assay, casein substrate 20 μM, Nek7 70 nM, 2 hours room temperature. The procedure:
Casein substrate (from bovine milk, hydrolyzed and partially dephosphorylated mixture of α, β and κ caseins, obtained from Sigma Aldrich, catalogue #C4765, diluted in distilled water to a final concentration of 1 mg/mL, assay concentration 20 μM) and full-length recombinant human Nek7 (expressed by baculovirus in Sf9 insect cells using a N-terminal GST tag, obtained from SignalChem, catalogue #N09-10G, 0.1 μg/μL, assay concentration 70 nM) were mixed in assay buffer (20 mM Hepes pH 7.5, 10 mM MgCl2, 1 mM EGTA, 0.02% Brij35, 0.02 mg/ml BSA, 0.1 mM […], 2 mM DTT, 1% DMSO). Compounds of interest (in DMSO, serial 3-fold dilution from 10 μM to 0.5 nM) or control (1% DMSO) were dispensed into the kinase reaction mixture by Acoustic technology (Echo550; nanoliter range). After incubation at room temperature for 20 minutes, the kinase reaction was initiated by addition of [^32P]-ATP (Specific activity 10 μCi/μl) and the mixture was incubated at room temperature for 2 hours. The reaction was then stopped by spotting the reaction mixture on strips of phosphocellulose P81 paper. Following washing, the radioactivity of the P81 paper was measured and kinase activity data were expressed as the percent remaining kinase activity in test samples compared to vehicle (dimethyl sulfoxide) reactions. IC50 values and curve fits were obtained using Prism (GraphPad Software).
Representative compounds were tested for inhibitory activity against NEK7 according to the procedure described above.
On to `Nc1ncnc2c1c(-c1ccc3c(c1F)CCN3C(=O)Cc1cc(C(F)(F)F)ccc1F)cn2CCC(=O)O` [Compound I-34, 3-(4-amino-5-(4-fluoro-1-(2-(2-fluoro-5-(tri-fluoromethyl)phenyl)-acetyl)indolin-5-yl)-7H-pyrrolo[2,3-d]pyrimidin-7-yl)propanoic acid], for which the negative-log IC50 (pIC50) is greater than 6.82. Then `Nc1ncnc2c1c(-c1ccc3c(c1F)CCN3C(=O)Cc1cc(C(F)(F)F)ccc1F)cn2CCO` [Compound I-18, 1-(5-(4-amino-7-(2-hydroxyethyl)-7H-pyr-rolo[2,3-d]pyrimidin-5-yl)-4-fluoroindolin-1-yl)-2-(2-fluoro-5-(tri-fluoromethyl)phenyl)-ethan-1-one], with greater than 6.82; and `CN1CCN(Cc2ccc(CC(=O)N3CCc4c3ccc(-c3cn(C5CC5)c5ncnc(N)c35)c4F)cc2C(F)(F)F)CC1` [Compound I-25, 1-(5-(4-amino-7-cyclo-propyl-7H-pyrrolo[2,3-d]pyrimidin-5-yl)-4-fluoroindolin-1-yl)-2-(4-((4-methylpiperazin-1-yl)methyl)-3-(tri-fluoromethyl)phenyl)-ethan-1-one], with 6.30 to 6.52. On to `CC(C)n1cc(-c2ccc3c(c2F)CCN3C(=O)Cc2ccc(F)c(C(F)(F)F)c2)c2c(N)ncnc21` [Compound I-13, 1-(5-(4-amino-7-isoprop-yl-7H-pyrrolo[2,3-d]pyr-imidin-5-yl)-4-fluoroind-olin-1-yl)-2-(4-fluoro-3-(trifluoromethyl)phenyl)-ethan-1-one], for which the pIC50 is 6.52 to 6.82. In the case of `COCCn1nc(-c2ccc3c(c2F)CCN3C(=O)Cc2cc(C(F)(F)F)ccc2F)c2c(N)ncnc21` [Compound I-24, 1-(5-(4-amino-1-(2-methoxyethyl)-1H-pyrazolo[3,4-d]pyrim-idin-3-yl)-4-fluoroindo-lin-1-yl)-2-(2-fluoro-5-(trifluoromethyl)phen-yl)ethan-1-one], the pIC50 was greater than 6.82. Turning to `Nc1nccc2c1c(-c1ccc3c(c1F)CCN3C(=O)Cc1cc(C(F)(F)F)ccc1F)nn2C1CC1` [Compound I-29, 1-(5-(4-amino-1-cyclo-propyl-1H-pyrazolo[4,3-c]pyridin-3-yl)-4-fluoro-indolin-1-yl)-2-(2-fluoro-5-(trifluoromethyl)phen-yl)ethan-1-one], the pIC50 was greater than 6.82. As for `Nc1ncnc2c1c(-c1ccc3c(c1Cl)CCN3C(=O)Cc1cc(C(F)(F)F)ccc1F)nn2C1CC1` [Compound I-15, 1-(5-(4-amino-1-cyclo-propyl-1H-pyrazolo[3,4-d]pyrimidin-3-yl)-4-chloroindolin-1-yl)-2-(2-fluoro-5-(trifluoro-methyl)phenyl)ethan-1-one], the pIC50 is greater than 6.82. In the case of `Cc1cccc(CC(=O)N2CCc3c2ccc(-c2cn(C4CC4)c4ncnc(N)c24)c3F)n1` [Compound I-21, 1-(5-(4-amino-7-cyclo-propyl-7H-pyrrolo[2,3-d]pyrimidin-5-yl)-4-fluoroindolin-1-yl)-2-(6-methylpyridin-2-yl)-ethan-1-one], the pIC50 is greater than 6.82. Turning to `CN1CCCC(n2cc(-c3ccc4c(c3F)CCN4C(=O)Cc3cc(C(F)(F)F)ccc3F)c3c(N)ncnc32)C1` (centres unmarked) [Compound I-31, 1-(5-(4-amino-7-(1-methylpiperidin-3-yl)-7H-pyrrolo[2,3-d]pyr-imidin-5-yl)-4-fluoroin-dolin-1-yl)-2-(2-fluoro-5-(trifluoromethyl)phen-yl)ethan-1-one], the pIC50 was greater than 6.82. Then `Nc1ncnc2c1c(-c1ccc3c(c1F)CCN3C(=O)Cc1cccc(C(F)(F)F)n1)cn2C1CC1` [Compound I-20, 1-(5-(4-amino-7-cyclo-propyl-7H-pyrrolo[2,3-d]pyrimidin-5-yl)-4-fluoroindolin-1-yl)-2-(6-(trifluoromethyl)pyr-idin-2-yl)ethan-1-one], with greater than 6.82; and `CC(C)(O)Cn1cc(-c2ccc3c(c2F)CCN3C(=O)Cc2cc(C(F)(F)F)ccc2F)c2c(N)ncnc21` [Compound I-23, 1-(5-(4-amino-7-(2-hydroxy-2-methylprop-yl)-7H-pyrrolo[2,3-d]-pyrimidin-5-yl)-4-fluoroindolin-1-yl)-2-(2-fluoro-5-(trifluoro-methyl)phenyl)ethan-1-one], with greater than 6.82. For `CN1CCN(Cc2cc(CC(=O)N3CCc4c3ccc(-c3cn(C5CC5)c5ncnc(N)c35)c4F)cc(C(F)(F)F)c2)CC1` [Compound I-32, 1-(5-(4-amino-7-cyclo-propyl-7H-pyrrolo[2,3-d]pyrimidin-5-yl)-4-fluoroindolin-1-yl)-2-(3-((4-methylpiperazin-1-yl)methyl)-5-(tri-fluoromethyl)phenyl)-ethan-1-one] the value was less than 5.82. Take `CC(C)n1nc(-c2ccc3c(c2F)CCN3C(=O)Cc2ccc(F)cc2)c2c(N)ncnc21` [Compound I-3, 1-(5-(4-amino-1-iso-propyl-1H-pyrazolo[3,4-d]pyrimidin-3-yl)-4-fluoroindolin-1-yl)-2-(4-fluorophenyl)ethan-1-one]: the pIC50 was less than 5.82. Consider `Nc1ncnc2c1c(-c1ccc3c(c1F)CCN3C(=O)Cc1cc(C(F)(F)F)ccc1F)nn2CCO` [Compound I-19, 1-(5-(4-amino-1-(2-hydroxyethyl)-1H-pyr-azolo[3,4-d]pyrimidin-3-yl)-4-fluoroindolin-1-yl)-2-(2-fluoro-5-(tri-fluoromethyl)phenyl)-ethan-1-one], for which the pIC50 is greater than 6.82.

As to `CN1CCC(n2cc(-c3ccc4c(c3F)CCN4C(=O)Cc3cc(C(F)(F)F)ccc3F)c3c(N)ncnc32)CC1` [Compound I-28, 1-(5-(4-amino-7-(1-methylpiperidin-4-yl)-7H-pyrrolo[2,3-d]pyr-imidin-5-yl)-4-fluoro-indolin-1-yl)-2-(2-fluoro-5-(trifluorometh-yl)phenyl)ethan-1-one], the pIC50 was greater than 6.82. Then `CN1CC(n2cc(-c3ccc4c(c3F)CCN4C(=O)Cc3cc(C(F)(F)F)ccc3F)c3c(N)ncnc32)C1` [Compound I-33, 1-(5-(4-amino-7-(1-methylazetidin-3-yl)-7H-pyrrolo[2,3-d]pyr-imidin-5-yl)-4-fluoroin-dolin-1-yl)-2-(2-fluoro-5-(trifluoromethyl)phen-yl)ethan-1-one], with greater than 6.82; and `Nc1ncnc2[nH]cc(-c3ccc4c(c3F)CCN4C(=O)Cc3cc(C(F)(F)F)ccc3F)c12` [Compound I-22, 1-(5-(4-amino-7H-pyr-rolo[2,3-d]pyrimidin-5-yl)-4-fluoroindolin-1-yl)-2-(2-fluoro-5-(tri-fluoromethyl)phenyl)-ethan-1-one], with greater than 6.82. Turning to `COCCn1cc(-c2ccc3c(c2F)CCN3C(=O)Cc2cc(C(F)(F)F)ccc2F)c2c(N)ncnc21` [Compound I-26, 1-(5-(4-amino-7-(2-methoxyethyl)-7H-pyr-rolo[2,3-d]pyrimidin-5-yl)-4-fluoroindolin-1-yl)-2-(2-fluoro-5-(tri-fluoromethyl)phenyl)-ethan-1-one], the pIC50 is greater than 6.82. Then `CN1CCN(Cc2ccc(C(F)(F)F)cc2CC(=O)N2CCc3c2ccc(-c2cn(C4CC4)c4ncnc(N)c24)c3F)CC1` [Compound I-30, 1-(5-(4-amino-7-cyclo-propyl-7H-pyrrolo[2,3-d]pyrimidin-5-yl)-4-fluoroindolin-1-yl)-2-(2-((4-methylpiperazin-1-yl)methyl)-5-(trifluoro-methyl)phenyl)ethan-1-one], with less than 5.82. For `Nc1ncnc2c1c(-c1ccc3c(c1F)CCN3C(=O)Cc1cc(C(F)(F)F)ccc1F)cn2C1CC(O)C1` (centres unmarked) [Compound I-27, 1-(5-(4-amino-7-(3-hydroxycyclobutyl)-7H-pyrrolo[2,3-d]pyrimidin-5-yl)-4-fluoroindolin-1-yl)-2-(2-fluoro-5-(tri-fluoromethyl)phenyl)-ethan-1-one], the pIC50 is greater than 6.82.
